Data from the supplement of paper PMC10307832.

Experiments:
Assay in all cases: relative viability (nuclei count vs DMSO), 5 days (fraction); higher = more cells survive
ABC-1 = test system: ABC-1
In short: (§1)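 Relative viability divides the nuclei count in treated wells by that in vehicle wells. Lung cancer cell lines were seeded in 1536-well plates, dosed by pin tool the next day, and fixed and stained after 5 days in one step with final 0.05% Triton X-100, 1% formaldehyde and 1 ug/ml Hoechst. Dosing was a single drug or a fixed anchor-drug dose plus five library-drug doses (not always all listed) in √10 steps, and values are medians of duplicate plates imaged at 4×.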

CAL-12T = test system: CAL-12T
In short: as §1

COR-L23 = test system: COR-L23
In short: as §1

EMC-BAC-2 = test system: EMC-BAC-2
In short: as §1

HARA = test system: HARA
In short: as §1

HCC-366 = test system: HCC-366
In short: as §1

HOP-62 = test system: HOP-62
In short: as §1

LK-2 = test system: LK-2
In short: as §1

NCI-H1437 = test system: NCI-H1437
In short: as §1

NCI-H1563 = test system: NCI-H1563
In short: as §1

NCI-H1650 = test system: NCI-H1650
In short: as §1

NCI-H1651 = test system: NCI-H1651
In short: as §1

Cc1csc(=NC2CCCCC2)n1/N=C/c1ccc(O)c(O)c1O [MIM1] + COc1cc2c(Oc3ccc(NC(=O)C4(C(=O)Nc5ccc(F)cc5)CC4)cc3F)ccnc2cc1OCCCN1CCOCC1 [Foretinib] (partner 0.25 µM) was tested, and the relative viability (ABC-1; first compound 0.2 µM) was 1.05, the relative viability (ABC-1; first compound 0.6325 µM) was 1.12 and the relative viability (ABC-1; first compound 2 µM) was 0.981. It also gave a relative viability (ABC-1; first compound 6.325 µM) of 0.324, a relative viability (ABC-1; first compound 20 µM) of 0.328 and a relative viability (CAL-12T; first compound 0.2 µM) of 1.03. It also gave a relative viability (CAL-12T; first compound 0.6325 µM) of 1.16, a relative viability (CAL-12T; first compound 2 µM) of 1.2 and a relative viability (CAL-12T; first compound 6.325 µM) of 0.68. The relative viability (CAL-12T; first compound 20 µM) was 0.475, the relative viability (COR-L23; first compound 0.2 µM) was 0.992 and the relative viability (COR-L23; first compound 0.6325 µM) was 0.935. It also gave a relative viability (COR-L23; first compound 2 µM) of 0.839, a relative viability (COR-L23; first compound 6.325 µM) of 0.802 and a relative viability (COR-L23; first compound 20 µM) of 0.547. It also gave a relative viability (EMC-BAC-2; first compound 0.2 µM) of 0.698, a relative viability (EMC-BAC-2; first compound 0.6325 µM) of 1 and a relative viability (EMC-BAC-2; first compound 2 µM) of 0.963. For the same compound, the relative viability (EMC-BAC-2; first compound 6.325 µM) was 0.697, the relative viability (EMC-BAC-2; first compound 20 µM) was 0.449 and the relative viability (HARA; first compound 0.2 µM) was 0.954. The relative viability (HARA; first compound 2 µM) was 0.991, the relative viability (HARA; first compound 6.325 µM) was 0.868 and the relative viability (HARA; first compound 20 µM) was 0.131. For the same compound, the relative viability (HCC-366; first compound 0.2 µM) was 0.927, the relative viability (HCC-366; first compound 2 µM) was 0.993 and the relative viability (HCC-366; first compound 6.325 µM) was 0.782. For the same compound, the relative viability (HCC-366; first compound 20 µM) was 0.077, the relative viability (HOP-62; first compound 0.2 µM) was 1.14 and the relative viability (HOP-62; first compound 0.6325 µM) was 1.1. For the same compound, the relative viability (HOP-62; first compound 2 µM) was 0.986, the relative viability (HOP-62; first compound 6.325 µM) was 0.94 and the relative viability (HOP-62; first compound 20 µM) was 0.278. It also gave a relative viability (LK-2; first compound 0.2 µM) of 1.46, a relative viability (LK-2; first compound 2 µM) of 1.33 and a relative viability (LK-2; first compound 6.325 µM) of 1.17. For the same compound, the relative viability (LK-2; first compound 20 µM) was 0.218, the relative viability (NCI-H1437; first compound 0.2 µM) was 1.24 and the relative viability (NCI-H1437; first compound 0.6325 µM) was 1.34. It also gave a relative viability (NCI-H1437; first compound 2 µM) of 1.19, a relative viability (NCI-H1437; first compound 6.325 µM) of 1.1 and a relative viability (NCI-H1437; first compound 20 µM) of 0.243. For the same compound, the relative viability (NCI-H1563; first compound 0.2 µM) was 0.971, the relative viability (NCI-H1563; first compound 0.6325 µM) was 0.975 and the relative viability (NCI-H1563; first compound 2 µM) was 0.866. The relative viability (NCI-H1563; first compound 6.325 µM) was 0.819, the relative viability (NCI-H1563; first compound 20 µM) was 0.772 and the relative viability (NCI-H1650; first compound 0.2 µM) was 1.16. It also gave a relative viability (NCI-H1650; first compound 0.6325 µM) of 1.12, a relative viability (NCI-H1650; first compound 2 µM) of 0.832 and a relative viability (NCI-H1650; first compound 6.325 µM) of 0.265. The relative viability (NCI-H1650; first compound 20 µM) was 0.142, the relative viability (NCI-H1651; first compound 0.2 µM) was 0.722 and the relative viability (NCI-H1651; first compound 0.6325 µM) was 0.741. For the same compound, the relative viability (NCI-H1651; first compound 2 µM) was 0.824.
